In ChEMBL document CHEMBL2040781, “Design, synthesis, and biological evaluation of chromone-based p38 MAP kinase inhibitors” (J Med Chem, 2011):

Target: Mitogen-activated protein kinase 14 (Homo sapiens, UniProt Q16539)
Experiment: Inhibition of p38alpha MAPK after 40 mins by scintillation counting

Chain of Mitogen-activated protein kinase 14 (Q16539 whole entry): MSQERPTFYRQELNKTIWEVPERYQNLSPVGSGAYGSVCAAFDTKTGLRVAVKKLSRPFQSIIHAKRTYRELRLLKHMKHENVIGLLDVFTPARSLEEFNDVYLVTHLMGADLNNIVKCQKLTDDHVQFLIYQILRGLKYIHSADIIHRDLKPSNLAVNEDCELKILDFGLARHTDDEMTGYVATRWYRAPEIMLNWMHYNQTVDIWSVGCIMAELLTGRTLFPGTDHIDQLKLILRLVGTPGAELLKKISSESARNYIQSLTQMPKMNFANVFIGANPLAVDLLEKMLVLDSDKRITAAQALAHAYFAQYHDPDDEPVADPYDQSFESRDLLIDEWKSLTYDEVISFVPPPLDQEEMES

| Compound | IC50 |
| --- | --- |
| O=c1c(-c2ccc(F)cc2)c(-c2ccnc(NC3CCOCC3)c2)oc2ccccc12 | 45 nM |
| O=c1c(-c2ccc(F)cc2)c(-c2ccnc(NCc3ccccc3)c2)oc2ccccc12 | 35 nM |
| COCCCNc1cc(-c2oc3ccccc3c(=O)c2-c2ccc(F)cc2)ccn1 | 39 nM |

Other lines, results leading:

| IC50 | Compound |
| --- | --- |
| 761 nM | CN(C)CCCNc1cc(-c2oc3ccccc3c(=O)c2-c2ccc(F)cc2)ccn1 |
| 21 nM | CCCCNc1cc(-c2oc3ccccc3c(=O)c2-c2ccc(F)cc2)ccn1 |
| 1380 nM | O=c1c(-c2ccc(F)cc2)c(-c2ccnc(Cl)c2)oc2ccccc12 |
| 813 nM | O=c1c(-c2ccc(F)cc2)c(-c2ccncc2)oc2ccccc12 |
